Source: ChEMBL document CHEMBL1201862, “PubChem BioAssay data set” (2004)
Activity calls are given as the source filed them.

Experiments:
[1] = target: Mothers against decapentaplegic homolog 3 (Homo sapiens, UniProt P84022); experiment: blockers of Smad3 complex formation in lysate – cell lysate, secondary confirmation, chemiluminescent ELISA, HEK293 lysate, dose response (AID 1058); format: functional
[2] = target: T1, Alkaline phosphatase, tissue-nonspecific isozyme (Homo sapiens, UniProt P05186)
T1 sequence (P05186 whole entry): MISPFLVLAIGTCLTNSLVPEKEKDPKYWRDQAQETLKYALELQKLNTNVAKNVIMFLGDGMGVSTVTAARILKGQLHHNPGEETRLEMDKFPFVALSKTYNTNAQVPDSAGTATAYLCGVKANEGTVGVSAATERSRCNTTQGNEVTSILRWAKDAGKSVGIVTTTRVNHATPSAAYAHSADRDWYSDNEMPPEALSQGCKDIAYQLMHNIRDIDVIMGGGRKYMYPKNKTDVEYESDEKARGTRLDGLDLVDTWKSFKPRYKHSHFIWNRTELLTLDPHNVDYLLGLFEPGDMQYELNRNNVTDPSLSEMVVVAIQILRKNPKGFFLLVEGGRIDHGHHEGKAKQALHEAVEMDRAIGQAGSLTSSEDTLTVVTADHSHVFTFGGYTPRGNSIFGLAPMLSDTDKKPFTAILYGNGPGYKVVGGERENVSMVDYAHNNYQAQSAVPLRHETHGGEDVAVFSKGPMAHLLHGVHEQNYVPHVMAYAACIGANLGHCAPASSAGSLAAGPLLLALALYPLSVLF

[3] = target: Cytochrome P450 2C9 (Homo sapiens, UniProt P11712)
[4] = target: Cytochrome P450 2C19 (Homo sapiens, UniProt P33261); experiment: Cytochrome panel assay with activity outcomes. Panel member name: p450-cyp2c19 Compounds with AC50 equal or less than 10 uM are considered active; format: functional; details: read-out: AC50
[5] = cytotoxicity in MITF-independent A375 cells – cell-based, CellTiter-Glo luminescence, dry powder, set 4, counter-screen for MITF inhibitor project, dose response (AID 624364); format: functional; details: A-375;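 also: A375 melanoma cells are MITF independent so this is a counter screen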
[6] = viability loss in MITF-independent A375 cells – cell-based, CellTiter-Glo luminescence, dry powder, set 2, counter-screen for MITF inhibitor project, dose response (AID 624489); format: functional; details: A-375;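 also: actives are compounds lowering A375 viability meaning general cytotoxicity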
[7] = A Cell Based Secondary Assay To Explore Cytotoxicity of Compounds that Sensitize Mycobacterium Tuberculosis to Beta-Lactam Antibiotics.; format: functional
[8] = target: T2, Microphthalmia-associated transcription factor (Homo sapiens, UniProt O75030); experiment: reducers of TRPM1 reporter luminescence, concentration series – cell-based, SK-MEL-5, cherry-picked, set 3, MITF inhibitor project, dose response (AID 493073); format: functional;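 also: SK-MEL-5 melanoma cells with luciferase driven by the MITF target TRPM1 promoter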
T2 sequence (O75030 whole entry): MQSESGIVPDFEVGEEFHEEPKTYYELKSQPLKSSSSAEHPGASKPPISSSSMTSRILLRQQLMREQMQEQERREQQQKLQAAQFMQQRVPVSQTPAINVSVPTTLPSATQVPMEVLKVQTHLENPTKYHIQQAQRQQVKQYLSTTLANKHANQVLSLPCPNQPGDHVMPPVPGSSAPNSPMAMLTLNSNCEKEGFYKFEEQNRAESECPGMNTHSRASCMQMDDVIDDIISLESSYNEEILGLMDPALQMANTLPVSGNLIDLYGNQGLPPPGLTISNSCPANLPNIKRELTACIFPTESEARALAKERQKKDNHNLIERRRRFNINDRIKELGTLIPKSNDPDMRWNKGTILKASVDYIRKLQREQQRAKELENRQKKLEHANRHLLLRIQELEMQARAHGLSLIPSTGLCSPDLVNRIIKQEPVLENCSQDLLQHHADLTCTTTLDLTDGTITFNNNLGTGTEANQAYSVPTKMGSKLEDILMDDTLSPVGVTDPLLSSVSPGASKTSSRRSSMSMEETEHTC

[9] = Luminescence Cell-Based Dose Retest to Confirm Inhibitors of Cancer Stem Cells. [Related pubchem assays (depositor defined):AID2717, AID2721]; format: functional; details: Homo sapiens
[10] = target: T3, Hexokinase HKDC1 (Homo sapiens, UniProt Q2TB90); experiment: inhibition of HKDC1 glucose phosphorylation – biochemical, W721R variant, dose response (AID 504729); format: functional
T3 sequence (Q2TB90 whole entry): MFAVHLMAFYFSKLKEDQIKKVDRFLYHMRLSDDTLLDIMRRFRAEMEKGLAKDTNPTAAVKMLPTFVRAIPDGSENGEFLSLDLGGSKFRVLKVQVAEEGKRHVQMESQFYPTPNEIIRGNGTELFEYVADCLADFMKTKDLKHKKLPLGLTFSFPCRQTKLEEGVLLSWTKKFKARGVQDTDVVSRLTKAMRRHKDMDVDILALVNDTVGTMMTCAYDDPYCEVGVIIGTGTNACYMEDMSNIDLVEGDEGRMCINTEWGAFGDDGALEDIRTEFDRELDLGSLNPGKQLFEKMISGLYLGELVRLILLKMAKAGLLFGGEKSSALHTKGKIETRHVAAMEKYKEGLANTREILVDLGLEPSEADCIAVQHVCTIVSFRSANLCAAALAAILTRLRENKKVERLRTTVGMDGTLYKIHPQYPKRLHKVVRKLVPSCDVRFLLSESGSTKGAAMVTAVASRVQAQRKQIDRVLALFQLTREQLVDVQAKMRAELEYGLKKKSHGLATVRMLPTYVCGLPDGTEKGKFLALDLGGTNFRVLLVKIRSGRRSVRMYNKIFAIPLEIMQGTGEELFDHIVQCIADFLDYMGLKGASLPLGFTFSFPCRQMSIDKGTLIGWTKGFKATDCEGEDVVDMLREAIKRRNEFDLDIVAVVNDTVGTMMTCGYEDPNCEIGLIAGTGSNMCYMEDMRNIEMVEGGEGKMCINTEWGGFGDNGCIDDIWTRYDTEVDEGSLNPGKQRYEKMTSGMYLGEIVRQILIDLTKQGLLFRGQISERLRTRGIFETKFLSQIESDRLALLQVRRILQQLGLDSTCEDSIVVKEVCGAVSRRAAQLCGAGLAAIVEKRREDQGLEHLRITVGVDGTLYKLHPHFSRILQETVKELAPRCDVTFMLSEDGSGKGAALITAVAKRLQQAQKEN

[11] = test system: Streptococcus sp. 'group A'; experiment: Streptococcus pyogenes SK(-)GAS viability under kanamycin – luminescence, BacTiterGlo, confirmation, counter-screen for streptokinase expression inhibitor project, dose response (AID 1900); format: functional, organism-based
[12] = target: T4, Streptokinase A (Streptococcus pyogenes serotype M1, UniProt P10520); experiment: viability-normalized secreted streptokinase activity reduction – plasminogen activation absorbance, OD405, dose response (AID 1914); format: functional, Streptococcus pyogenes M1 GAS;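 also: secreted streptokinase activity via plasminogen activation per viability signal from cell pellet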
T4 sequence (P10520 whole entry): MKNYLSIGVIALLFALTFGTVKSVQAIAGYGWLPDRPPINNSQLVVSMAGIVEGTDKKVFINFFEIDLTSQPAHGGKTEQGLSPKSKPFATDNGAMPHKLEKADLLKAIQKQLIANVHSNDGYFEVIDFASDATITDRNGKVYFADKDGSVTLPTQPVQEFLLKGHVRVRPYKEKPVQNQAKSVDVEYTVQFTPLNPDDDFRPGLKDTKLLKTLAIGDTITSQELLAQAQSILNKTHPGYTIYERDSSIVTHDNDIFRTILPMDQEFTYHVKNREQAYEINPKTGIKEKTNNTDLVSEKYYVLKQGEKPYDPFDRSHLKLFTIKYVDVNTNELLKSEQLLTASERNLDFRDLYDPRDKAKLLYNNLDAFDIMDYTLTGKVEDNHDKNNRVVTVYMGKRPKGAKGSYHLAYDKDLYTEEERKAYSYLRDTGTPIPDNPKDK

[13] = test system: Streptococcus; experiment: GAS UMAA2166 growth inhibition – luminescence, BacTiterGlo, counter-screen for streptokinase expression inhibitor project, dose response (AID 1915); format: functional, organism-based;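 also: potency for reduction of bacterial viability or growth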
[14] = target: T5, Eukaryotic translation initiation factor 2-alpha kinase 3 (Homo sapiens, UniProt Q9NZJ5); experiment: Counterscreen assay for PERK inhibitors: Dose response cell-based high throughput screening assay to measure inhibition of PERK at 6 hours. [Related pubchem assays: 1522, 1416 ]; format: functional
T5 sequence (Q9NZJ5 whole entry): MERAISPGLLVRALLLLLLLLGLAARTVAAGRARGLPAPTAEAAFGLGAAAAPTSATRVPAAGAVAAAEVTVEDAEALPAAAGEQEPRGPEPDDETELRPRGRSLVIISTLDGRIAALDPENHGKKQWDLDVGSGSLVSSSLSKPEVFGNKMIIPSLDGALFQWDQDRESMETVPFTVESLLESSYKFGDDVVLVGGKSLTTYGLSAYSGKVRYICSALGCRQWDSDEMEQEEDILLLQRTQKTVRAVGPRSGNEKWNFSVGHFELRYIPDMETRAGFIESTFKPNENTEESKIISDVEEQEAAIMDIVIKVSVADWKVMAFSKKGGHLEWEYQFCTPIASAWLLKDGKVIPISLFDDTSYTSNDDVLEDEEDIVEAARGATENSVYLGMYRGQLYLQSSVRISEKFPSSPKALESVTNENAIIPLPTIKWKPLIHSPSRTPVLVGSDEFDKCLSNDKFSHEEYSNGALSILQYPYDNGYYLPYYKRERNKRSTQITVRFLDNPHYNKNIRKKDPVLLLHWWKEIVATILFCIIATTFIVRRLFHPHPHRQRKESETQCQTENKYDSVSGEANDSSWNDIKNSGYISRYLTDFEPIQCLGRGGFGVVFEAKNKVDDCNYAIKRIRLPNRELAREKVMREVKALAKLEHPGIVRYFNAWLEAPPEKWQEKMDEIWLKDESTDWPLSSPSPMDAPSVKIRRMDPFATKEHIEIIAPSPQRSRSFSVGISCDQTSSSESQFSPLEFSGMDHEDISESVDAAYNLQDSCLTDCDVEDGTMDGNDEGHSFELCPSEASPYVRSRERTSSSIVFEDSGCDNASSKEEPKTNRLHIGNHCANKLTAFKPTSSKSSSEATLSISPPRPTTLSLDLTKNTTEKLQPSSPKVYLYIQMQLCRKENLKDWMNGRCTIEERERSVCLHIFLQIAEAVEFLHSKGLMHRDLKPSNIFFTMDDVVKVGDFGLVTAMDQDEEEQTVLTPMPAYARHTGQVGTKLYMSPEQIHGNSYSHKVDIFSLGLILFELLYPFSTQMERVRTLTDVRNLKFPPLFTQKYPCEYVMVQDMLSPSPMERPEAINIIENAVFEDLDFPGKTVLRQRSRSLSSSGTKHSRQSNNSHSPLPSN

[15] = target: T5, Eukaryotic translation initiation factor 2-alpha kinase 3; experiment: Dose response cell-based high-throughput screening assay to measure PERK inhibition. [Related pubchem assays: 1416 ]; format: functional
[16] = target: T6, Protein skinhead-1 (Caenorhabditis elegans, UniProt P34707); format: functional
T6 sequence (P34707 whole entry): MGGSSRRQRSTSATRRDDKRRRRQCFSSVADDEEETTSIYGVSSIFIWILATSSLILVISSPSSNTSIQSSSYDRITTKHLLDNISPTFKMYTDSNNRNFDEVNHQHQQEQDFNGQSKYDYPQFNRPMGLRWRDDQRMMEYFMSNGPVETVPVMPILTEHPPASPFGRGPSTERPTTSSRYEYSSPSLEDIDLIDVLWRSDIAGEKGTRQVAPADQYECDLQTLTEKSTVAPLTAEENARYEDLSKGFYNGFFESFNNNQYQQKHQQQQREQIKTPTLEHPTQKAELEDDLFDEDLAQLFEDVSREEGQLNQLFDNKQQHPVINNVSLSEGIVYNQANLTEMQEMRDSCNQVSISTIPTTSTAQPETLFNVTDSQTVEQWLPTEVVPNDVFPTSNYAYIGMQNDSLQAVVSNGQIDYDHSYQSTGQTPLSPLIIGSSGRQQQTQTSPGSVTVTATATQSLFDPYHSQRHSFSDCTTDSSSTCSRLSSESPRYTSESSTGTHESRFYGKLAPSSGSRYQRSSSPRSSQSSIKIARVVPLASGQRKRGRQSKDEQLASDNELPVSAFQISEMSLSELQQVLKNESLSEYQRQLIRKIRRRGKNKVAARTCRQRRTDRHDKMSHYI

[17] = target: Luciferin 4-monooxygenase (Photinus pyralis, UniProt P08659); experiment: Counter Screen for Luciferase-based Assay Positives. [Related pubchem assays: 620, 618, 411 ]
[18] = test system: HT-1080; experiment: HT1080 cell viability loss – fluorescence readout (AID 620); format: functional, cell-based; details: Homo sapiens
[19] = test system: HeLa; experiment: viability loss in HeLa cells – cell-based, 24 h, cherry-picked samples, cytotoxicity control, dose response (AID 504726); format: functional; details: Homo sapiens;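 also: potency for cytotoxicity as loss of luminescence signal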

Chain of Mothers against decapentaplegic homolog 3 (P84022 whole entry): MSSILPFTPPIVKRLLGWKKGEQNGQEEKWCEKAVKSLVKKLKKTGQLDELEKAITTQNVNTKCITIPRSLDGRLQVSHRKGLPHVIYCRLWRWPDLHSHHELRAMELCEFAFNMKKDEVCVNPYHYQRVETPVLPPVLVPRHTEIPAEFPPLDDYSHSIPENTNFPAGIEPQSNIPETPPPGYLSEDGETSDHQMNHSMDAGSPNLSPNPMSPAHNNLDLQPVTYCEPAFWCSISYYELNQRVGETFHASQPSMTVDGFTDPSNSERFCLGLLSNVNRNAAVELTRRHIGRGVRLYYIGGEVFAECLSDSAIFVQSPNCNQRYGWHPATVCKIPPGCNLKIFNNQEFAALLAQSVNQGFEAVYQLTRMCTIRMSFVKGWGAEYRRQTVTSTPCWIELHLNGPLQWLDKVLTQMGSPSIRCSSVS
Chain of Cytochrome P450 2C9 (P11712 whole entry): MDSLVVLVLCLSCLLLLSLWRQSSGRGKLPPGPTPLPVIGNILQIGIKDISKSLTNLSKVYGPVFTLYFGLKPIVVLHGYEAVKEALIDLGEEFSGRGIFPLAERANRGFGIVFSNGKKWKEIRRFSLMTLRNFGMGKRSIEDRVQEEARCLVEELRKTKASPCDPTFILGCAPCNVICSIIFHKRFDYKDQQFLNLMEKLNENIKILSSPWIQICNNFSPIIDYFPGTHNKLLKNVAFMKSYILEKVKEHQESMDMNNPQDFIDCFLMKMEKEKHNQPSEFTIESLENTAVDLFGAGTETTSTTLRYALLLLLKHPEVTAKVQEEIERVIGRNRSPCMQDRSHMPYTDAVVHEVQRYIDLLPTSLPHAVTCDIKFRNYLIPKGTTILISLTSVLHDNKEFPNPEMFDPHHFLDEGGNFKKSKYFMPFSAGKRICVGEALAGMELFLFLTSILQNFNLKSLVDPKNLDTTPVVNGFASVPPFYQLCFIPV
Chain of Luciferin 4-monooxygenase (P08659 whole entry): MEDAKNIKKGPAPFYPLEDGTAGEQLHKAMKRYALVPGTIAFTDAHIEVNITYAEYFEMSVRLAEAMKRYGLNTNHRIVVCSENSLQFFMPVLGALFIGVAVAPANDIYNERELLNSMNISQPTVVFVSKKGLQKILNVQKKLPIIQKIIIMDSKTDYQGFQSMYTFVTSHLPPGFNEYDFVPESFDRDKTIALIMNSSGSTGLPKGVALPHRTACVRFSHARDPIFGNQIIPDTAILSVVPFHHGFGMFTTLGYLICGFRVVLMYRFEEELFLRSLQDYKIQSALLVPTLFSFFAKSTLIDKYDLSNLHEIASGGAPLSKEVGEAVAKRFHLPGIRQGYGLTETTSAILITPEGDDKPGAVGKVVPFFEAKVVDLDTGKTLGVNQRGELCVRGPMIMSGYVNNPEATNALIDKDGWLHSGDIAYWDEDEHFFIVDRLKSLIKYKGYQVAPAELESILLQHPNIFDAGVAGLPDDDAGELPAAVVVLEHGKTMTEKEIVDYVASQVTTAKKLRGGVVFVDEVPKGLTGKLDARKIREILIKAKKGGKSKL
Chain of Cytochrome P450 2C19 (P33261 whole entry): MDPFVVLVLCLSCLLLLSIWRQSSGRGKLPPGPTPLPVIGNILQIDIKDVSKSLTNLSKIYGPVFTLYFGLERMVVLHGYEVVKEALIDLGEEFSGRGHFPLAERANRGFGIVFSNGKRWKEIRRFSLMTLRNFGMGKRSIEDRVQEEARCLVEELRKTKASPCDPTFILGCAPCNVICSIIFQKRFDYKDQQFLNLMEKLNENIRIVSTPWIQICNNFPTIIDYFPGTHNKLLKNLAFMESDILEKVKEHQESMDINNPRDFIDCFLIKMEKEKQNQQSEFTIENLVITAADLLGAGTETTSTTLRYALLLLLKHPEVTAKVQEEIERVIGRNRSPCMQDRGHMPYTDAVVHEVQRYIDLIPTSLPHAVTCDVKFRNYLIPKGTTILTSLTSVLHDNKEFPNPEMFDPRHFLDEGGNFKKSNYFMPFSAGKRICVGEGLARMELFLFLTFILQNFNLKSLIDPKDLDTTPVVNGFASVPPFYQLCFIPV

## COc1cccc(C(c2cc3c(cc2O)OCO3)N2CCOCC2)c1OC (centres undefined)
[1]
  IC50: 6.43 µM (not active)

## O=C(CCN1C(=O)/C(=C/c2cccc(Br)c2)SC1=S)NNC(=O)c1cccnc1
[2]
  EC50: 83.8 µM (not active)
[3]
  AC50: 0.447 µM (inconclusive)
[4]
  AC50: 1.58 µM (inconclusive)

## CC1CCN(CC(CS(=O)(=O)c2ccc([N+](=O)[O-])cc2)N2CCC(C)CC2)CC1 (centres undefined)
[5]
  AC50: > 70 µM (inactive)
[6]
  AC50: > 70 µM (inactive)
[7]
  CC50: 7.41 µM (active)
[8]
  AC50: 6.62 µM (active)
[9]
  AC50: 1.59 µM (active)

## N#C/C(=C(/O)CCl)c1nc2c(s1)CCc1ccccc1-2
[10]
  IC50: 17.4 µM (active)
[11]
  EC50: > 150 µM (not active)
[12]
  EC50: > 150 µM (not active)
[13]
  EC50: > 150 µM (not active)

## CC(C)(C)N1CCC1CN (centres undefined)
[14]
  EC50: > 55.7 µM (not active)
[15]
  EC50: > 55.7 µM (not active)

## Cc1ccc2nc(NC(=O)c3ccco3)sc2c1
[16]
  IC50: > 100 µM (inactive)
[17]
  EC50: 18.9 µM (active)
[18]
  EC50: > 50 µM (not active)

## C[C@H](NC(=O)c1[nH]cnc1C(=O)Nc1cccc(Cl)c1)c1ccccc1
[7]
  CC50: 19.3 µM (active)

## CCOc1ccc(C(C)NC(=O)c2ccccc2OCc2c(C)noc2C)cc1OCC (centres undefined)
[19]
  AC50: 113 µM (active)

## CCN(C(=O)COC(=O)CCCOc1ccc(Cl)cc1C)c1c(N)n(Cc2ccccc2)c(=O)[nH]c1=O
[19]
  AC50: 43.7 µM (active)

## O=C1OC2(c3ccc(O)cc3Oc3cc(O)ccc32)c2ccccc21 [FLUORESCEIN]
[1]
  IC50: 4.89 µM (not active)

## Cc1nc([N+](=O)[O-])cn1CCC#N
[14]
  EC50: > 55.7 µM (not active)
[15]
  EC50: > 55.7 µM (not active)
